Data set [1] is described as follows: Toxicity in po dosed Rattus norvegicus albino (rat). Format: organism-based. To be noted: in vivo.
The species named for data set [2] is Mus musculus. As to the kind of experiment: Anticonvulsant activity in Mus musculus (mouse) assessed as protection against metrazole-induced seizures. Format: functional.
For data set [3], the species on record is Mus musculus. The data set can be described thus: Anticonvulsant activity in acute seizure Mus musculus (mouse) model assessed as protection against maximal electroshock-induced seizures. Format: functional. On the technique in general: In the maximal electroshock model the usual endpoint is tonic extension of the hind limbs.
The species named for data set [4] is Mus musculus. The data set can be described thus: Anticonvulsant activity in Mus musculus (mouse) assessed as protection against maximal electroshock-induced seizures. Format: functional.
Data set [5] deals with Mus musculus. As to the kind of experiment: Anticonvulsant activity in Mus musculus (mouse) assessed protection against subcutaneous pentylenetetrazole-induced seizures. Format: functional.
The species entered for data set [6] is Mus musculus. As to the kind of experiment: Anticonvulsant activity against Mus musculus DBA/2 (mouse) assessed as protection against sound-induced seizure. Format: functional. The following applies: read-out: MED.
Data set [7] relates to Mus musculus. The data set can be described thus: Anticonvulsant activity in Mus musculus (mouse) assessed as protection against maximal electroshock-induced seizures compound co-administered with losartan 50 mg/kg, ip. Format: functional. The following applies: route intraperitoneal.

Where only a bound is given, the exact number is not on record here.

As for `COc1cccc(-c2nc(-c3ccccc3)c(-c3ccccc3)[nH]2)c1`, the MTD in data set [1] is no more than 5000 mg/kg. In general, ED50 refers to the dose that gives a 50% effect, or the effect in half of the subjects. `Cc1ncc(C(=O)Oc2ccccc2)n1C(C)c1ccccc1.O=[N+]([O-])O` (stereo not given): the ED50 in the data set listed under Mus musculus [2] was determined as 68 mg/kg.

As for `CCCOC(=O)NC1=NCC(c2ccccc2F)N1C` (stereo not given), the ED50 in the data set filed under Mus musculus [3] was 23 mg/kg. On the same count and under the same terms, with `CC(C)OC(=O)NC1=NCC(c2ccccc2F)N1C` (stereo not given) the figure was 23 mg/kg.

As for `Clc1ccc(-c2nc(Cn3ccnc3)cs2)cc1`, the Activity in the data set filed under Mus musculus [4] and in the data set on Mus musculus [5] was 33% in each case. Regarding `COC(=O)c1cnc(C)n1C(C)c1ccccc1.O=[N+]([O-])O` (stereo not given), the ED50 in the data set listed under Mus musculus [2] was determined as 68 mg/kg.

Consider `O=[N+]([O-])c1cc2nc(O)c(O)nc2nc1-n1ccnc1`, for which the minimal effective dose in the data set filed under Mus musculus [6] came to 10 mg/kg. In the case of `CCCC(CCC)C(=O)O` [VALPROIC ACID], the ED50 in the data set with Mus musculus [7] is 195 mg/kg; in the data set listed under Mus musculus [4] (Mus musculus) it was 250 mg/kg.

The values are drawn from ChEMBL document CHEMBL3045591, “Imidazole as an anti-epileptic: an overview” (Med Chem Res, 2012).
